# Reference: publication PMC11362529, “Exploring the neuroprotective potential of Nrf2-pathway activators against annonacin toxicity” (Scientific Reports, 2024)
# Assays:
# Nrf2 = Nrf2 nuclear translocation (cell fractionation, Western blot); type: cell-based, human; details: 4 h treatment
# Protocol: For fractionation experiments, LUHMES were seeded on double-coated T25 flasks and submitted to pharmacological treatments. Afterwards, the medium was removed and cells were briefly washed with warm HBSS, and trypsinized for 5 min at 37 °C. The cells were pelleted at 500×g for 5 min at 4 °C, washed once with ice-cold PBS (phosphate buffered saline), and centrifuged at 500 g for 2 min at 4 °C. Nuclear protein extraction was achieved using the NE-PER™ nuclear and cytoplasmic extraction kit (Thermo Fisher Scientific), according to the manufacturer’s instructions. Briefly, the pellet was resuspended in 50 µl of CER I buffer, supplemented with Halt™ protease and phosphatase inhibitor cocktail (Thermo Fisher Scientific), and incubated on ice for 10 min, followed by the addition of 2.75 µl of CER II, and a 2 min incubation on ice after vortexing. The samples were then centrifuged at maximum speed for 10 min at 4 °C and the cytoplasmic fraction was saved. The nuclear pellet was washed with ice-cold PBS and resuspended in 25 µl of NER buffer supplemented with protease and phosphatase inhibitors, followed by 6 cycles of 10 min incubation on ice, with 15 s of vortexing between each cycle. Finally, the samples were centrifuged at maximum speed for 10 min at 4 °C and the nuclear fraction was transferred to a new tube. All protein extracts were stored long-term at − 80 °C.
# The concentrations of protein extracts were determined by BCA (bicinchoninic acid) assay, using the Pierce™ BCA protein assay kit (Thermo Fisher Scientific), according to the manufacturer’s instructions. Absorbance values were measured on a FLUOstar® Omega plate reader. For Western blot analysis, sample volumes were diluted in PBS to ensure that equal amounts of total protein were loaded. For fractionated samples, 30 µg of cytoplasmic fraction and 15 µg of nuclear fraction were applied. Samples were denatured by heating at 95 °C for 5 min on a ThermoMixer C (Eppendorf, Wesseling-Berzdorf, Germany) with 4 × Laemmli sample buffer supplemented with 10% β-ME (β-mercaptoethanol). SDS–PAGE was performed using 7.5% Criterion™ TGX™ precast midi gels in a Tris–glycine-SDS running buffer (Bio-Rad). The proteins were blotted onto PVDF membranes, using a trans-blot turbo transfer system (Bio-Rad) at 25 V for 30 min. The membranes were blocked for 1 h at RT, with 3 × Roti®-Block solution (Carl Roth, Karlsruhe, Germany) or 5% nonfat-dry milk in 0.05% TBST (Tris-buffered saline with 0.05% Tween20), in the case of the Nrf2 antibody. Membranes were incubated at 4 °C overnight under gentle shaking with the appropriate primary antibody solutions as listed in Supplementary Table S2. On the following day, the membranes were washed with TBST, and incubated with the HRP-secondary antibodies for 2 h at RT (Supplementary Table S2). After further washing, the membranes were exposed to Clarity Western ECL Substrate (Bio-Rad), or SuperSignal West Femto Maximum Sensitivity Substrate (Thermo Fisher Scientific) in the case of the Nrf2 antibody. Chemiluminescence signal was detected with an Odyssey® Fc imaging system (LI-COR Biosciences, Bad Homburg, Germany) and analyzed by Image Studio™ software (LI-COR Biosciences). Fraction purity was confirmed and signal intensity normalized to housekeeping proteins, using β-III tubulin for the cytoplasmic fraction and lamin A for the nuclear fraction. Protein expression was expressed as fold change relative to the control (DMSO-treated) condition.
# LUHMES cells = assay: Mitochondrial activity by MTT reduction; type: cell-based, human; details: 24 h; for MTT reduction: protective concentration of compound + 20 nM annonacin
# Protocol: Mitochondrial activity was estimated by the reduction of MTT (3-(4,5-dimethylthiazol-2-yl)-2,5-diphenyltetrazolium, Sigma-Aldrich). Briefly, LUHMES cells were seeded on PLO/FN-coated 48-well microplates, in triplicates. After a 24 h treatment with 20 nM of annonacin and the protective concentrations of Nrf2-pathway activators in glucose-reduced medium, cells were incubated with 0.5 mg/ml of MTT dissolved in PBS, at 37 °C for 30 min. After that, the medium was removed and the plate was frozen at -80 °C for 1 h, for cell lysing. Next, the plate was thawed and the MTT crystals were completely dissolved in 250 µl of DMSO with vigorous shaking. The absorbance was measured on a FLUOstar® Omega plate reader at λ = 590 nm, using λ = 630 nm absorbance as a background correction. The obtained results were analyzed with the MARS data analysis software (BMG LabTech). After background subtraction, the data were expressed as a percentage of MTT reduction relative to the control (DMSO-treated) condition. Determination of cellular ATP levels was done by using the ViaLight™ plus kit (Lonza, Basel, Switzerland), following the manufacturer’s instructions. Cells were seeded on PLO/FN-coated 48-well microplates and the pharmacological treatments were done similarly as to the assessment of the MTT reduction. On the next day, the medium was removed and cells were washed once with warm HBSS and rested in 210 µl HBSS. The plate was left to reach RT before adding 70 µl cell lysis reagent to each well, provided by the kit. […] The plate was incubated in the dark for 10 min at RT before the luminescence signal was measured on a FLUOstar® Omega plate reader. The obtained results were analyzed with the MARS data analysis software (BMG LabTech) and expressed as RLUs. For background correction, the RLUs detected for the background control (i.e., 10 µl of ATP monitoring reagent plus combined with 10 µl of cell lysis reagent) were subtracted from the measured RLUs values of all testing conditions.
# [1] = absence of annonacin, vs control
Compound,"Nrf2 expression in the nuclear fraction, normalized to lamin A (Nrf2; [1])","Nrf2 expression in the nuclear fraction, normalized to lamin A (Nrf2; presence of 20 nM annonacin)",decrease of reduced-MTT compared with healthy control cells (LUHMES cells; 20 nM annonacin alone),MTT reduction (LUHMES cells)
Cn1c(Nc2nc3ccc(C(F)(F)F)cc3s2)nc2cc(C(=O)NCCOCCO)ccc21 [HPP-D],significantly increased expression of Nrf2 protein in the nuclear fraction,higher expression of Nrf2 in the nuclear fraction,,
CCCCCCCCCCCC[C@@H](O)[C@H]1CC[C@H]([C@H](O)CCCC[C@H](O)CCCCC[C@@H](O)CC2=CC(C)OC2=O)O1 (stereo partly drawn) [annonacin],,,20%,
O=C1[C@H](CC[C@H](O)c2ccc(F)cc2)[C@@H](c2ccc(O)cc2)N1c1ccc(F)cc1 [ezetimibe],no evidence of increasing the Nrf2 nuclear expression,no evidence of increasing the Nrf2 nuclear expression,,further decreased the amount of MTT reduction
C=CC(C)(C)c1cc(/C=C/C(=O)c2ccc(O)cc2)c(OC)cc1O [licochalcone A],significantly increased expression of Nrf2 protein in the nuclear fraction,higher expression of Nrf2 in the nuclear fraction,,further decreased the amount of MTT reduction
